Measured values reported in patent publication US12403184B2, “Compositions and methods for treating neurodegenerative disroders” (priority 2018, dated 2025).
Where no end group is shown, it is not given here.

Assays:
GST-Drp1 and ATAD3A-Flag = target: T1, GST-Drp1 and ATAD3A-Flag (Homo sapiens, UniProt Q9NVI7); assay: GST pulldown assay, in vitro binding of GST-Drp1 and ATAD3A-Flag; conditions: GST pull down, peptide 60 μM
T1 construct: Abnova for GST-Drp1 L1170 (TNT kit); no catalogue number printed for GST-Drp1; host or cells: cell-free coupled transcription/translation (ATAD3A-Flag); GST-Drp1 purchased
T1 sequence (Q9NVI7 1-586): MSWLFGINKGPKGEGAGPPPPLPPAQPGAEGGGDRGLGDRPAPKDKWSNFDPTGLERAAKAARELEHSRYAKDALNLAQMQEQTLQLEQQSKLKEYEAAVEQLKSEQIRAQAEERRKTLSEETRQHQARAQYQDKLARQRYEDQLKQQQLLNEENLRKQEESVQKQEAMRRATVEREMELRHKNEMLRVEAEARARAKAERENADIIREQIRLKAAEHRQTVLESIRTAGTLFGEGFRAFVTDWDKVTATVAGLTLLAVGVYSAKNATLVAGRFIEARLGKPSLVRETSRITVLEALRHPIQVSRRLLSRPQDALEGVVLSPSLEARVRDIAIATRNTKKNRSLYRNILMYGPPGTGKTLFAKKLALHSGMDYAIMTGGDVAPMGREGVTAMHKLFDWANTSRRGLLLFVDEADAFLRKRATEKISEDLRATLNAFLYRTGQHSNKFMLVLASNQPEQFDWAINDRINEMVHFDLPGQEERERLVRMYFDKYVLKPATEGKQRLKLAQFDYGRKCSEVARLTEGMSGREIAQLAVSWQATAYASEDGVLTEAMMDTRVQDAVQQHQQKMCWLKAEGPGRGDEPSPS
From the text: Using pcDNA3.1 (+)-ATAD3A-Flag plasmid as template, ATAD3A-Flag protein was synthesized by TNT® Quick Coupled Transcription/Translation System (Promega, Cat #L1170) followed by protein purification with Flag-peptide (Sigma, F3290). The expression of ATAD3A protein was confirmed by western blot analysis with both anti-ATAD3A and anti-Flag antibodies. This approach provides convenient single-tube, coupled transcription/translation reactions for eukaryotic cell-free protein expression and has been used to detect direct protein-protein interaction.
GST-Drp1 or GST control protein were incubated with Glutathione-beads in TBST buffer at r.t. After 1 h of incubation, ATAD3A-Flag protein was added, and thoroughly mixed in vibrating mixer for 30 mins at r.t., then transferred to 4° C. for overnight incubation Immunoprecipitates were then washed for three time and analyzed by SDS-PAGE.
To test the inhibitory function of DA1 peptide on in vitro binding between GST-Drp1 and ATAD3A-Flag, DA1 peptide or control peptide TAT (60 μM, each) was incubated with ATAD3A-Flag protein before mixing with GST-Drp1-glutathione beads complex.

HD R6/2 mice = assay: Body weight, survival and behavior in HD R6/2 mice; format: in vivo, mouse
Protocol: Male R6/2 mice and their wild-type (WT) littermates (5 weeks old) were purchased from Jackson Laboratories [Bar Harbor, ME; B6CBA-TgN (HD exon1) 62; JAX stock number: 006494]. These mice (C57BL/6 and CBA genetic background) are transgenic for the 5′ end of the human HD gene carrying 100-150 glutamine (CAG) repeats.
Systemic peptide treatment in HD mice. All randomization and peptide treatments were prepared by an experimenter not associated with behavioral and neuropathology analysis. Male R6/2 mice (Tg) and their age-matched wild-type littermates (Wt) (6-week-old) were implanted with a 28-day osmotic pump (Alzet, Cupertino CA, Model 2004) containing TAT control peptide or DA1 peptide, which delivered peptides at a rate of 1 mg/kg/day. Male YAC128 mice (Tg) and their age-matched wild-type littermates (WT) were treated with TAT control peptide or DA1 peptide (1 mg/kg/day) by Alzet osmotic pump starting from the age of 3 months. The pump was replaced once every month.
Gross locomotor activity was assessed in R6/2 mice and age-matched wild-type littermates at the ages of 12 weeks, and in YAC128 mice and age-matched wildtype littermates at the ages of 2, 3, 6, 9, and 12 months. The mice were placed in the center of an activity chamber (Omnitech Electronics, Inc) and allowed to explore while being tracked by an automated beam system (Vertax, Omnitech Electronics Inc). Distance moved, horizontal and vertical activities were recorded. In R6/2 mice and wildtype littermates, one-hour locomotor activity was conducted. In YAC128 mice and wildtype littermates, 24 h of locomotor activity analysis was performed.
Hindlimb clasping was assessed with the tail suspension test once a week from the ages 8 to 12 weeks in R6/2 mice. The mice were suspended by the tail for 60 s, and the latency for the hindlimbs or all four paws to clasp was recorded using the score system: Clasping over 10 s, score 3; 5-10 s, score 2; 0-5 s, score 1; and 0 s, score 0.
The body weight and survival rate of HD mice and wild-type littermates were recorded throughout the study period.

[1] = R6/2 mice at the age of 12 weeks

YGRKKRRQRRRGGEDKRKT-NH2 [DA1, YGRKKRRQRRR-GG-EDKRKT-NH2]
binding of GST-Drp1 and ATAD3A-Flag in vitro (GST-Drp1 and ATAD3A-Flag): abolished | body weight loss (HD R6/2 mice; HD R6/2 mice, 1 mg/kg/day from 6 weeks, vs TAT): moderately suppressed | survival (HD R6/2 mice; HD R6/2 mice, age 6 to 21 weeks, 1 mg/kg/day): greatly prolonged | horizontal activity (HD R6/2 mice; [1]): increased | total traveled distance (HD R6/2 mice; [1]): increased | severity of clasping behavior (HD R6/2 mice; R6/2 mice, four-week observation period): reduced
